What was measured:
Test in all cases: scanMAX KINOMEscan (Eurofins)
Assay type in all cases: binding
INSRR = INSRR (Homo sapiens, UniProt P14616); conditions: 1000 nM, read-out: Percent Control
Excerpt: (§1) Supplement cb5c00097_si_002.xlsx, sheet "Table S6 (Eurofins Selectivity)" | column: Percent Control

BRAF = BRAF (Homo sapiens, UniProt P15056); conditions: 1000 nM, read-out: Percent Control
Excerpt: as §1

LTK = LTK (Homo sapiens, UniProt P29376); conditions: 1000 nM, read-out: Percent Control
Excerpt: as §1

MST2 = MST2 (Homo sapiens, UniProt Q13188); conditions: 1000 nM, read-out: Percent Control
Excerpt: as §1

JNK1 = JNK1 (Homo sapiens, UniProt P45983); conditions: compound concentration 100 nM; Entrez MAPK8; read-out: Percent Control
Excerpt: as §1

ERBB3 = ERBB3 (Homo sapiens, UniProt P21860); conditions: 1000 nM, read-out: Percent Control
Excerpt: as §1

PLK4 = PLK4 (Homo sapiens, UniProt O00444); conditions: 1000 nM, read-out: Percent Control
Excerpt: as §1

[1] = target: RSK3(Kin.Dom.2-C-terminal) (Homo sapiens, UniProt Q15349); conditions: compound concentration 100 nM; Entrez RPS6KA2; read-out: Percent Control
Excerpt: as §1

OSR1 = OSR1 (Homo sapiens, UniProt O95747); conditions: 1000 nM, read-out: Percent Control
Excerpt: as §1

TRKC = TRKC (Homo sapiens, UniProt Q16288); conditions: 1000 nM, read-out: Percent Control
Excerpt: as §1

MEK1 = MEK1 (Homo sapiens, UniProt Q02750); conditions: compound concentration 100 nM; Entrez MAP2K1; read-out: Percent Control
Excerpt: as §1

CAMKK1 = CAMKK1 (Homo sapiens, UniProt Q8N5S9); conditions: 1000 nM, read-out: Percent Control
Excerpt: as §1

MINK = MINK (Homo sapiens, UniProt Q8N4C8); conditions: 1000 nM, read-out: Percent Control
Excerpt: as §1

NEK3 = NEK3 (Homo sapiens, UniProt P51956); conditions: 1000 nM, read-out: Percent Control
Excerpt: as §1

IRAK4 = IRAK4 (Homo sapiens, UniProt Q9NWZ3); conditions: compound concentration 100 nM; Entrez IRAK4; read-out: Percent Control
Excerpt: as §1

SRPK1 = SRPK1 (Homo sapiens, UniProt Q96SB4); conditions: 1000 nM, read-out: Percent Control
Excerpt: as §1

SIK = SIK (Homo sapiens, UniProt P57059); conditions: 1000 nM, read-out: Percent Control
Excerpt: as §1

QSK = QSK (Homo sapiens, UniProt Q9Y2K2); conditions: read-out: Percent Control
Excerpt: as §1

MYLK2 = MYLK2 (Homo sapiens, UniProt Q9H1R3); conditions: 1000 nM, read-out: Percent Control
Excerpt: as §1

MLK1 = MLK1 (Homo sapiens, UniProt P80192); conditions: compound concentration 100 nM; Entrez MAP3K9; read-out: Percent Control
Excerpt: as §1

VPS34 = VPS34 (Homo sapiens, UniProt Q8NEB9); conditions: compound concentration 100 nM; Entrez PIK3C3; read-out: Percent Control
Excerpt: as §1

ZAP70 = ZAP70 (Homo sapiens, UniProt P43403); conditions: compound concentration 100 nM; Entrez ZAP70; read-out: Percent Control
Excerpt: as §1

MST1 = MST1 (Homo sapiens, UniProt Q13043); conditions: 1000 nM, read-out: Percent Control
Excerpt: as §1

PIK3CD = PIK3CD (Homo sapiens, UniProt O00329); conditions: 1000 nM, read-out: Percent Control
Excerpt: as §1

TAOK2 = TAOK2 (Homo sapiens, UniProt Q9UL54); conditions: 1000 nM, read-out: Percent Control
Excerpt: as §1

TIE2 = TIE2 (Homo sapiens, UniProt Q02763); conditions: compound concentration 100 nM; Entrez TEK; read-out: Percent Control
Excerpt: as §1

BRSK1 = BRSK1 (Homo sapiens, UniProt Q8TDC3); conditions: 1000 nM, read-out: Percent Control
Excerpt: as §1

LYN = LYN (Homo sapiens, UniProt P07948); conditions: 1000 nM, read-out: Percent Control
Excerpt: as §1

AMPK-alpha1 = AMPK-alpha1 (Homo sapiens, UniProt Q13131); conditions: 1000 nM, read-out: Percent Control
Excerpt: as §1

p38-delta = p38-delta (Homo sapiens, UniProt O15264); conditions: compound concentration 100 nM; Entrez MAPK13; read-out: Percent Control
Excerpt: as §1

GRK3 = GRK3 (Homo sapiens, UniProt P35626); conditions: 1000 nM, read-out: Percent Control
Excerpt: as §1

CAMK1B = CAMK1B (Homo sapiens, UniProt Q6P2M8); conditions: 1000 nM, read-out: Percent Control
Excerpt: as §1

AMPK-alpha2 = AMPK-alpha2 (Homo sapiens, UniProt P54646); conditions: read-out: Percent Control
Excerpt: as §1

DMPK = DMPK (Homo sapiens, UniProt Q09013); conditions: read-out: Percent Control
Excerpt: as §1

CAMK2G = CAMK2G (Homo sapiens, UniProt Q13555); conditions: 1000 nM, read-out: Percent Control
Excerpt: as §1

ULK3 = ULK3 (Homo sapiens, UniProt Q6PHR2); conditions: 1000 nM, read-out: Percent Control
Excerpt: as §1

ERN1 = ERN1 (Homo sapiens, UniProt O75460); conditions: read-out: Percent Control
Excerpt: as §1

Sequence of QSK (Q9Y2K2 whole entry): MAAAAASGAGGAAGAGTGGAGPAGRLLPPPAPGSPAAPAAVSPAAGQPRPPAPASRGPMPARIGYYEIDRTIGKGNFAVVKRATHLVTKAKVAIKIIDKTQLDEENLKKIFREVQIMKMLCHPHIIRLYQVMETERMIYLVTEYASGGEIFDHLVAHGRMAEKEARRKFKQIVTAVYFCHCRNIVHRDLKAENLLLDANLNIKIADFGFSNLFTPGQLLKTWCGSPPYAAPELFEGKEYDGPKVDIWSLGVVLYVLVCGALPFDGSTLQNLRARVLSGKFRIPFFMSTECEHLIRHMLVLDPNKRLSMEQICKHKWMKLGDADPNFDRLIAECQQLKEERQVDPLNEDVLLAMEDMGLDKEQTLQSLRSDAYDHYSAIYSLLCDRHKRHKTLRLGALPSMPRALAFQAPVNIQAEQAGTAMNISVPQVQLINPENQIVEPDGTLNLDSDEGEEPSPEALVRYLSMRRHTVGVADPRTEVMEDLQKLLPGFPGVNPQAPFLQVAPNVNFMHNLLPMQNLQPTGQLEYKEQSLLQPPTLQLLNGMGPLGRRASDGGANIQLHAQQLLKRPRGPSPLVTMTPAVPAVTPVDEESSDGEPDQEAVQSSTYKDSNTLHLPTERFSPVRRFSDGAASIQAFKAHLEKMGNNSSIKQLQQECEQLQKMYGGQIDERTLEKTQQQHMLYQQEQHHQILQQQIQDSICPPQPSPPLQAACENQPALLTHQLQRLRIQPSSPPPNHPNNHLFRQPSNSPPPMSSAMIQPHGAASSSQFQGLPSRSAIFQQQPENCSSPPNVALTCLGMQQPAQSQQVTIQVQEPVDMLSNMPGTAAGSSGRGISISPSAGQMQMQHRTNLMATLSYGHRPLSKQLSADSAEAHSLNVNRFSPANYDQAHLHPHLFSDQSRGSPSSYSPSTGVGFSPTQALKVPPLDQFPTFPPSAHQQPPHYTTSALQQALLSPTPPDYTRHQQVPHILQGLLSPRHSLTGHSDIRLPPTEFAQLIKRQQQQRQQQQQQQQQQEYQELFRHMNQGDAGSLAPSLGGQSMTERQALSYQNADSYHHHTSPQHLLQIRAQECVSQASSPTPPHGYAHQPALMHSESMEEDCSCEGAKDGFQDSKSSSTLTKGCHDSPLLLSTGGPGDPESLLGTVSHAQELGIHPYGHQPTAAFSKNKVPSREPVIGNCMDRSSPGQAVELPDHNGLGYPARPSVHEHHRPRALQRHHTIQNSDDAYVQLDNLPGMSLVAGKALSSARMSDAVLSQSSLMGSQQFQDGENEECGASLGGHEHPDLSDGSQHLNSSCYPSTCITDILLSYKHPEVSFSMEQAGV
Sequence of AMPK-alpha2 (P54646 whole entry): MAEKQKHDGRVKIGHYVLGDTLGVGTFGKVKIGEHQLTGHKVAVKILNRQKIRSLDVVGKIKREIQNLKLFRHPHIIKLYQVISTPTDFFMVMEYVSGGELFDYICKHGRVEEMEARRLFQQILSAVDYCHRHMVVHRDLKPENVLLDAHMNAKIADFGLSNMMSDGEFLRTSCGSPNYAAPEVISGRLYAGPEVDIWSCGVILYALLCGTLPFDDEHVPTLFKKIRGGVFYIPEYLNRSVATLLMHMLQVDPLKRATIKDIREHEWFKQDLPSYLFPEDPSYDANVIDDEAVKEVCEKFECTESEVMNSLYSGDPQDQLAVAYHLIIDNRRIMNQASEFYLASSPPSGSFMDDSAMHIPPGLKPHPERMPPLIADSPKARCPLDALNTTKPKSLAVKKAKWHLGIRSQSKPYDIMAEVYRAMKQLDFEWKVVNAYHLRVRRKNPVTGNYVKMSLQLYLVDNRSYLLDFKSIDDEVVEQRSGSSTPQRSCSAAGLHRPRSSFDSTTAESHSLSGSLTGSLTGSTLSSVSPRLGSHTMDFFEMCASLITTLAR
Sequence of ERN1 (O75460 19-977): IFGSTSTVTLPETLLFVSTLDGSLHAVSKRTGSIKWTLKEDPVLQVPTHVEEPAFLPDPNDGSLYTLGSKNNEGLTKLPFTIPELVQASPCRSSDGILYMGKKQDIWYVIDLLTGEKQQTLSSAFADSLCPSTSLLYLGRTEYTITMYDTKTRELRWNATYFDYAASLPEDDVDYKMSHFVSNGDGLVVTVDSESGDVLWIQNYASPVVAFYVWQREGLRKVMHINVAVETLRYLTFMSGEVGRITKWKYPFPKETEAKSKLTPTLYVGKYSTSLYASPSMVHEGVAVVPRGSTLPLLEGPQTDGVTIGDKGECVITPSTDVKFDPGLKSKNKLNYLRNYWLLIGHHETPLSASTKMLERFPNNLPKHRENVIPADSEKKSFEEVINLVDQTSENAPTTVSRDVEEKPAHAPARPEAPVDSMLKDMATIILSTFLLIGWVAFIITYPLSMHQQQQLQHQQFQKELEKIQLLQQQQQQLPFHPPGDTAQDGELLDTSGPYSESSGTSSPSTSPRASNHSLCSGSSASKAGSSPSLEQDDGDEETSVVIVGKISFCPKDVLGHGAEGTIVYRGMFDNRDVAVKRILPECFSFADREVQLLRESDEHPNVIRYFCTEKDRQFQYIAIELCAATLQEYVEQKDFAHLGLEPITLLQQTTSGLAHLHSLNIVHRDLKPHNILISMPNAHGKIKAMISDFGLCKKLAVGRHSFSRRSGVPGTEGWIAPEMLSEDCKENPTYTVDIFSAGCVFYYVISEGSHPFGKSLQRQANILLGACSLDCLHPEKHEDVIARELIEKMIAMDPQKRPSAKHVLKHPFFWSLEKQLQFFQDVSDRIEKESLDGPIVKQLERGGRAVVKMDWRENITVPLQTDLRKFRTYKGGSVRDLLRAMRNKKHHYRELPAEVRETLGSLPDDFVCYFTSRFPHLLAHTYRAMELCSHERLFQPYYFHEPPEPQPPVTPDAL
Sequence of DMPK (Q09013 whole entry): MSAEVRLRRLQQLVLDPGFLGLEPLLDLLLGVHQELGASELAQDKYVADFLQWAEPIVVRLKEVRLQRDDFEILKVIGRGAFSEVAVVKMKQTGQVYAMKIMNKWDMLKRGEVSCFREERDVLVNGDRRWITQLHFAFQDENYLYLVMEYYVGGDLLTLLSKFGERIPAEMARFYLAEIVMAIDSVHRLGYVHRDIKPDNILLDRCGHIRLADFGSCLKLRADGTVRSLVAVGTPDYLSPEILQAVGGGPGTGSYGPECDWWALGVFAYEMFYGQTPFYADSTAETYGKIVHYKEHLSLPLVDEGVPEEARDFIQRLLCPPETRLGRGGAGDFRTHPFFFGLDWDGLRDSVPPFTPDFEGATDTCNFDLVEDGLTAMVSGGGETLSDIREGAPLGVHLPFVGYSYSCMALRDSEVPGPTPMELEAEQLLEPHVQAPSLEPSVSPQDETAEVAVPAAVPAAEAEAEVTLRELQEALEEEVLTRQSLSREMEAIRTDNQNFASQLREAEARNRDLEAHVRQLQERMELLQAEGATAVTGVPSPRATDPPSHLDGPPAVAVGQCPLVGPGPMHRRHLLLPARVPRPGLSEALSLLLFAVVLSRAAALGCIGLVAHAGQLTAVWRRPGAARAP
Sequence of TIE2 (Q02763 23-1124): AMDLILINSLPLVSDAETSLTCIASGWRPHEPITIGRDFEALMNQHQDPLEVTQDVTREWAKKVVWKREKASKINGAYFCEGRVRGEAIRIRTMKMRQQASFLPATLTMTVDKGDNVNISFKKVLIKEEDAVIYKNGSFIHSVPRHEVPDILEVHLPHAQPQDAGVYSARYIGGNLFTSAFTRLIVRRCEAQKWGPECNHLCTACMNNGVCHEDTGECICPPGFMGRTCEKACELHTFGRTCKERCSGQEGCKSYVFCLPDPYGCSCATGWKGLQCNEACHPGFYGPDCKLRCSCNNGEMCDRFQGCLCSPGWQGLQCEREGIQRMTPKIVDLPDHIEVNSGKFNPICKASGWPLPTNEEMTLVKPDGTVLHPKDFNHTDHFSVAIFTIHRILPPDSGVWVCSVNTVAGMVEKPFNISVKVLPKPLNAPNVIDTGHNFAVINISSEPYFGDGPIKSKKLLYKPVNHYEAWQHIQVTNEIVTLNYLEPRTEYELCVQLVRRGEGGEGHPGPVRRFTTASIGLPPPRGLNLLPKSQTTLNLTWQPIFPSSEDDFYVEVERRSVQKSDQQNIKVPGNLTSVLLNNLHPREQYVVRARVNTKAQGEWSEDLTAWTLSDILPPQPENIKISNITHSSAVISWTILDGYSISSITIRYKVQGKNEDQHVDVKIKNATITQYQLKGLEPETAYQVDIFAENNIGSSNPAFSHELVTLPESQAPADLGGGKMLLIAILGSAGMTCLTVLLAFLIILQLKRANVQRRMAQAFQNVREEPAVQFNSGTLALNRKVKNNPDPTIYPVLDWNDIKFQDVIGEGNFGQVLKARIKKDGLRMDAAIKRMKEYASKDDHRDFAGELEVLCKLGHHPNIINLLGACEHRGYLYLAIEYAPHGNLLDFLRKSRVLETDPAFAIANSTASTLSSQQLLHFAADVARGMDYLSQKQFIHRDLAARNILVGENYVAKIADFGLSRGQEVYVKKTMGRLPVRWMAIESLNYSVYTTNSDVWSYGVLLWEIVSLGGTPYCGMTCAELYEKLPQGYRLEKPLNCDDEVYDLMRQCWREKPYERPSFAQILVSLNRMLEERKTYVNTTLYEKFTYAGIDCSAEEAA
Sequence of MST2 (Q13188 whole entry): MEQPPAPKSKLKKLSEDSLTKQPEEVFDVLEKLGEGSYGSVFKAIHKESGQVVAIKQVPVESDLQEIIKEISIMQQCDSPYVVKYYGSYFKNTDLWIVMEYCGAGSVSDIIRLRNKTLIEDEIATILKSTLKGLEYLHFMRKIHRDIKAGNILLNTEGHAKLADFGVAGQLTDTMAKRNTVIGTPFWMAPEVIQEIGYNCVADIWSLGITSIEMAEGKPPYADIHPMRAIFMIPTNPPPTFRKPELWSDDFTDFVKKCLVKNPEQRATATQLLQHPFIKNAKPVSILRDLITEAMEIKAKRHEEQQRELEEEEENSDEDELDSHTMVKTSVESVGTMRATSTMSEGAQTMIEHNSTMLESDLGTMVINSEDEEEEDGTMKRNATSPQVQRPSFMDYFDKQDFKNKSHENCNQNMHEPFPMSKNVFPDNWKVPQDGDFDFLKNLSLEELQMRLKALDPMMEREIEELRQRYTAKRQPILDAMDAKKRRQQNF

SMILES: CN1C(=O)[C@@H](N2CCc3c(nn(Cc4ccccc4)c3C(N)=O)C2=O)COc2cc(Cl)ccc21 [Compound 10, (S)-2-benzyl-6-(8-chloro-5-methyl-4-oxo-2,3,4,5-tetrahydrobenzo[b][1,4]oxazepin-3-yl)-7-oxo-4,5,6,7-tetrahydro-2H-pyrazolo[3,4-c]pyridine-3-carboxamide]
- remaining binding at 1 µM (INSRR): 76%
- remaining binding at 1 µM (BRAF): 79%
- remaining binding at 1 µM (LTK): 86%
- remaining binding at 1 µM (MST2): 80%
- remaining binding at 0.1 µM (JNK1): 79%
- remaining binding at 1 µM (ERBB3): 85%
- remaining binding at 1 µM (PLK4): 82%
- remaining binding at 0.1 µM [1]: 100%
- remaining binding at 1 µM (OSR1): 74%
- remaining binding at 1 µM (TRKC): 64%
- remaining binding at 0.1 µM (MEK1): 91%
- remaining binding at 1 µM (CAMKK1): 74%
- remaining binding at 1 µM (MINK): 95%
- remaining binding at 1 µM (NEK3): 86%
- remaining binding at 0.1 µM (IRAK4): 100%
- remaining binding at 1 µM (SRPK1): 88%
- remaining binding at 1 µM (SIK): 91%
- remaining binding at 1 µM (QSK; 1000 nM): 98%
- remaining binding at 0.1 µM (QSK; compound concentration 100 nM, Entrez KIAA0999): 90%
- remaining binding at 1 µM (MYLK2): 84%
- remaining binding at 0.1 µM (MLK1): 89%
- remaining binding at 0.1 µM (VPS34): 100%
- remaining binding at 0.1 µM (ZAP70): 84%
- remaining binding at 1 µM (MST1): 92%
- remaining binding at 1 µM (PIK3CD): 83%
- remaining binding at 1 µM (TAOK2): 90%
- remaining binding at 0.1 µM (TIE2): 95%
- remaining binding at 1 µM (BRSK1): 85%
- remaining binding at 1 µM (LYN): 77%
- remaining binding at 1 µM (AMPK-alpha1): 87%
- remaining binding at 0.1 µM (p38-delta): 79%
- remaining binding at 1 µM (GRK3): 71%
- remaining binding at 1 µM (CAMK1B): 91%
- remaining binding at 1 µM (AMPK-alpha2; 1000 nM): 100%
- remaining binding at 0.1 µM (AMPK-alpha2; compound concentration 100 nM, Entrez PRKAA2): 100%
- remaining binding at 1 µM (DMPK; 1000 nM): 100%
- remaining binding at 0.1 µM (DMPK; compound concentration 100 nM, Entrez DMPK): 80%
- remaining binding at 1 µM (CAMK2G): 84%
- remaining binding at 1 µM (ULK3): 93%
- remaining binding at 1 µM (ERN1; 1000 nM): 100%
- remaining binding at 0.1 µM (ERN1; compound concentration 100 nM, Entrez ERN1): 100%
